Data: the supplement of paper PMC11451515

Experiments:
Experiment in all cases: AUC of viability dose-response curve (% viability x log10 dose units); higher = less sensitive
Settings in all cases: 48 h
NOMO1 = system: NOMO1
Method in brief: (§1)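 Leukemia cells adapted to each medium (500 or 1000 cells/well, 1536-well plates) were exposed to library compounds in DMSO for 48 h at 37°C at 11 threefold doses, 47 μM to 0.79 nM. Luminescence by CellTiter-Glo One was normalised per plate to DMSO and cell-free wells, then fitted with a four-parameter log-logistic curve on log10 dose. Curves above full viability were scaled and quality-control failures removed before area under the curve was integrated by trapezoidal rule.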

P12-Ichikawa = system: P12-Ichikawa
Method in brief: as §1

SEM cells = system: SEM cells
Method in brief: as §1

[1] = RPMI 5 mM glucose + 10% dialyzed FBS

| SMILES | AUC of viability dose-response curve (NOMO1; HPLM + 10% dialyzed FBS) | AUC of viability dose-response curve (NOMO1; RPMI 5 mM glucose + 10% FBS) | AUC of viability dose-response curve (NOMO1; [1]) | AUC of viability dose-response curve (P12-Ichikawa; HPLM + 10% dialyzed FBS) | AUC of viability dose-response curve (P12-Ichikawa; RPMI 5 mM glucose + 10% FBS) | AUC of viability dose-response curve (P12-Ichikawa; [1]) | AUC of viability dose-response curve (SEM cells; HPLM + 10% dialyzed FBS) | AUC of viability dose-response curve (SEM cells; RPMI 5 mM glucose + 10% FBS) | AUC of viability dose-response curve (SEM cells; [1]) |
| --- | --- | --- | --- | --- | --- | --- | --- | --- | --- |
| COc1ccc2c(c1)c(CC(=O)OCC(=O)O)c(C)n2C(=O)c1ccc(Cl)cc1 | 468 | 439 | 463 | 458 | 436 | 450 | 470 | 432 | 454 |
| C[C@H]1[C@@H](C(=O)C[C@H]2O[C@@H]3O[C@]4(C)CC[C@H]5[C@H](C)CC[C@@H]([C@H]2C)[C@@]35OO4)O[C@@H]2O[C@]3(C)CC[C@H]4[C@H](C)CC[C@@H]1[C@@]24OO3 | 435 | 436 | 418 | 433 | 435 | 421 | 411 | 407 | 432 |
| CC[C@H](C)C(=O)O[C@H]1C[C@H](O)\C=C2\C=C/[C@H](C)[C@H](CC[C@@H](O)C[C@@H](O)CC(O)=O)[C@@H]12 | 441 | 457 | 462 | 447 | 460 | 464 | 458 | 464 | 470 |
| CCC\C1=C\C(=O)NC(=S)N1 | 407 | 421 | 452 | 413 | 399 | 425 |  |  |  |
| CO/C1=C/C(C)=C\[C@@H](C)[C@@H](O)[C@@H](C)C/C(C)=C\C=C/[C@H](OC)[C@@H]([C@@H](C)[C@@H](O)[C@H](C)[C@@]2(O)C[C@@H](O)[C@H](C)[C@@H](C(C)C)O2)OC1=O | 208 | 229 | 218 | 291 | 263 | 225 | 213 | 211 | 206 |
| Cc1ccc([S+](=O)([O-])Nc2nc3ccccc3nc2Nc2ccc3nsnc3c2)cc1 | 361 | 360 | 365 | 422 | 405 | 438 | 410 | 440 | 409 |
| COc1cc2c(Nc3ccc(Br)cc3F)ncnc2cc1OCC1CCN(C)CC1 | 373 | 373 | 380 | 419 | 396 | 398 |  |  |  |
| C[S+](=O)([O-])c1cccc(CNc2nc(Nc3ccc4c(c3)CCC(=O)N4)ncc2C(F)(F)F)c1 | 436 | 446 | 454 | 450 | 444 | 451 | 331 | 367 | 355 |
| N[S+](=O)([O-])c1cccc2c1C(=O)c1cccc(O)c1C2=O | 434 | 452 | 443 | 439 | 451 | 447 | 343 | 295 | 278 |
| CN1C(=O)C[C@H](C(=O)N[C@@H](Cc2cnc[nH]2)C(=O)N2CCC[C@H]2C(N)=O)NC1=O | 462 | 463 | 435 | 462 | 464 | 470 | 456 | 435 | 459 |
| CN(C)c1nc(Cc2ccc(NC(=O)c3ccc4ccccc4c3)cc2)nc(Cl)c1CC(=O)O | 377 | 401 | 392 | 440 | 427 | 434 | 461 | 447 | 455 |
| Oc1cccc(-c2nc(N3CCOCC3)c3oc4ncccc4c3n2)c1 | 464 | 466 | 459 | 449 | 401 | 430 | 337 | 302 | 312 |
| CCOC(=O)c1cncn1[C@H](C)c1ccccc1 | 443 | 477 | 442 | 463 | 452 | 466 | 438 | 468 | 435 |
| Cc1cc(Nc2cc(CN3CCOCC3)c3nc(C)c(Cc4ccc(Cl)cc4F)n3n2)[nH]n1 | 429 | 424 | 422 | 436 | 428 | 439 | 342 | 317 | 310 |
| CN1c2ccccc2C(=O)N2CCc3c([nH]c4ccccc34)C21 (centres undefined) | 445 | 466 | 434 | 470 | 454 | 451 | 453 | 438 | 459 |
| COc1cc2nc(-c3cc(F)ccc3O)nc(N[C@@H]3CNC[C@H]3C(C)(C)O)c2cc1OC | 449 | 463 | 455 | 436 | 429 | 410 | 274 | 283 | 227 |
| COC1=C2C[C@@H](C)C[C@H](OC)[C@H](O)[C@@H](C)/C=C(\C)[C@H](OC(N)=O)[C@@H](OC)/C=C/C=C(\C)C(=O)NC(=CC1=O)C2=O | 430 | 438 | 440 | 416 | 410 | 399 | 402 | 396 | 395 |
| CCCCCCCCCC(=O)N[C@@H](Cc1c[nH]c2ccccc12)C(=O)N[C@H](CC(N)=O)C(=O)N[C@@H](CC(=O)O)C(=O)N[C@@H]1C(=O)NCC(=O)N[C@@H](CCCN)C(=O)N[C@@H](CC(=O)O)C(=O)N[C@H](C)C(=O)N[C@@H](CC(=O)O)C(=O)NCC(=O)N[C@H](CO)C(=O)N[C@@H]([C@@H](C)CC(=O)O)C(=O)N[C@@H](CC(=O)c2ccccc2N)C(=O)O[C@@H]1C | 459 | 466 | 469 | 459 | 454 | 460 | 458 | 455 | 469 |
| CC(C)c1cc(C(=O)N2Cc3ccc(CN4CCN(C)CC4)cc3C2)c(O)cc1O | 320 | 317 | 323 | 374 | 342 | 348 |  |  |  |
| CC(C)C[C@H](NC(=O)CNC(=O)c1cc(Cl)ccc1Cl)B(O)O |  |  |  |  |  |  | 190 | 190 | 177 |
| O=C(c1ccc(F)c(F)c1Nc1ccc(I)cc1F)N1CC(O)([C@@H]2CCCCN2)C1 | 305 | 292 | 304 | 410 | 403 | 419 | 410 | 434 | 425 |
